In ChEMBL document CHEMBL4507257, “Data for DCP probe ABT-100” (2021):

Legend:
[1] = target: NT-3 growth factor receptor (Homo sapiens) (UniProt Q16288); details: Compound concentration 1000.0 nM
[2] = target: Phosphatidylinositol 4-phosphate 5-kinase type-1 alpha (Homo sapiens) (UniProt Q99755); details: Compound concentration 1000.0 nM
[3] = target: Serine/threonine-protein kinase Nek4 (Homo sapiens) (UniProt P51957); details: Compound concentration 1000.0 nM
[4] = target: Vascular endothelial growth factor receptor 3 (Homo sapiens) (UniProt P35916); details: Compound concentration 1000.0 nM
[5] = target: Serine/threonine-protein kinase Nek9 (Homo sapiens) (UniProt Q8TD19); details: Compound concentration 1000.0 nM
[6] = target: Casein kinase I isoform delta (Homo sapiens) (UniProt P48730); details: Compound concentration 1000.0 nM
Chain of Casein kinase I isoform delta (Homo sapiens) (P48730 whole entry, looked up, canonical isoform): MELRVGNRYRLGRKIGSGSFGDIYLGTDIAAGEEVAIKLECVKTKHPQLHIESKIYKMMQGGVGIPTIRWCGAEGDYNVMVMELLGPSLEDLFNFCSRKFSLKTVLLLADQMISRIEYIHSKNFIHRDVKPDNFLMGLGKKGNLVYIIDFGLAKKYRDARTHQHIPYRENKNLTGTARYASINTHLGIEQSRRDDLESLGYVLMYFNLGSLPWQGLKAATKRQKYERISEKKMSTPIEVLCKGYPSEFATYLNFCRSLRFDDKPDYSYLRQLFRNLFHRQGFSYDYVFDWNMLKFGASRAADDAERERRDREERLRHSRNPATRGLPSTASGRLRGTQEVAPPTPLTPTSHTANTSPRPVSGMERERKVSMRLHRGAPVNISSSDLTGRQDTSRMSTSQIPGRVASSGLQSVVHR

[7] = target: Phosphatidylinositol 4-kinase beta (Homo sapiens) (UniProt Q9UBF8); details: Compound concentration 1000.0 nM
[8] = target: Serine/threonine-protein kinase Nek2 (Homo sapiens) (UniProt P51955); details: Compound concentration 1000.0 nM
[9] = target: Cyclin-dependent kinase 19 (Homo sapiens) (UniProt Q9BWU1); details: Compound concentration 1000.0 nM
Chain of Cyclin-dependent kinase 19 (Homo sapiens) (Q9BWU1 whole entry): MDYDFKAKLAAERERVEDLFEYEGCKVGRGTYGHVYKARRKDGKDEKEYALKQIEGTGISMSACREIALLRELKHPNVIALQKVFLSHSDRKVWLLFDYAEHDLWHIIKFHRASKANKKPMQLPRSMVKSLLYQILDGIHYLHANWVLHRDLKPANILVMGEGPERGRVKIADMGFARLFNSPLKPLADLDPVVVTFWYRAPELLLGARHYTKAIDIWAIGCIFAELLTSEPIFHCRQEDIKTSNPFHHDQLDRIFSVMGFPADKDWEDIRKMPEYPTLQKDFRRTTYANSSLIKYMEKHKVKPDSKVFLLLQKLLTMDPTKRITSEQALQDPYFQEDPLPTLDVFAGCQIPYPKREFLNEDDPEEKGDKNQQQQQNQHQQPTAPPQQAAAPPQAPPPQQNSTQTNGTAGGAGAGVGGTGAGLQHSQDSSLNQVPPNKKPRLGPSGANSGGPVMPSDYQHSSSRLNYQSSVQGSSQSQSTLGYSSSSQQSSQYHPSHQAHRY

[10] = target: High affinity nerve growth factor receptor (Homo sapiens) (UniProt P04629); details: Compound concentration 1000.0 nM
[11] = target: D(3) dopamine receptor (Homo sapiens) (UniProt P35462); details: Compound concentration 10.0 uM
[12] = target: Interleukin-1 receptor-associated kinase 4 (Homo sapiens) (UniProt Q9NWZ3); details: Compound concentration 1000.0 nM
[13] = target: Serine/threonine-protein kinase Nek7 (Homo sapiens, UniProt Q8TDX7); details: Compound concentration 1000.0 nM
Chain of Serine/threonine-protein kinase Nek7 (Q8TDX7 whole entry, looked up): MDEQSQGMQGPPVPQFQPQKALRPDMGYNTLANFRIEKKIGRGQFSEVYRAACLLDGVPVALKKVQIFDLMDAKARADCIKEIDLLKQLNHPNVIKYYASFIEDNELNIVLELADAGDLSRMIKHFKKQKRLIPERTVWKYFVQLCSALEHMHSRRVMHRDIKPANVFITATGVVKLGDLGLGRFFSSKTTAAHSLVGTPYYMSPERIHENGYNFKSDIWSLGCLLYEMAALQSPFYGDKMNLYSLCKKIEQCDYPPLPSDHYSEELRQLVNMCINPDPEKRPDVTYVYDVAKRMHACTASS

[14] = target: TGF-beta receptor type-2 (Homo sapiens) (UniProt P37173); details: Compound concentration 1000.0 nM
[15] = target: Serine/threonine-protein kinase NIM1 (Homo sapiens) (UniProt Q8IY84); details: Compound concentration 1000.0 nM
[16] = target: Histamine H4 receptor (Homo sapiens) (UniProt Q9H3N8); details: Compound concentration 10.0 uM
Chain of Histamine H4 receptor (Homo sapiens) (Q9H3N8 whole entry): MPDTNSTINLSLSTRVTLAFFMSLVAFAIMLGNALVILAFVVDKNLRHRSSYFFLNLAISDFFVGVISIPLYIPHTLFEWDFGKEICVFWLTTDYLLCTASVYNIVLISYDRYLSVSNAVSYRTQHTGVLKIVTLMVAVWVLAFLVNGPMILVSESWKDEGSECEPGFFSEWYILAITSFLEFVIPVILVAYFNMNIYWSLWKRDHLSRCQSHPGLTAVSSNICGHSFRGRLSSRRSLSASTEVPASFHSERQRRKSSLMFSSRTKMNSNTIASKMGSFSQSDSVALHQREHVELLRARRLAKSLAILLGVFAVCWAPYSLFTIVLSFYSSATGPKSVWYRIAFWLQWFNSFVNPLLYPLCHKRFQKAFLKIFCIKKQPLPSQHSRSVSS

[17] = target: 5-hydroxytryptamine receptor 6 (Homo sapiens) (UniProt P50406); details: Compound concentration 10.0 uM
[18] = target: Tyrosine-protein kinase ABL1 (Homo sapiens) (UniProt P00519); details: Compound concentration 1000.0 nM
[19] = target: Ribosomal protein S6 kinase beta-1 (Homo sapiens) (UniProt P23443); details: Compound concentration 1000.0 nM
[20] = target: Mitogen-activated protein kinase kinase kinase 7 (Homo sapiens) (UniProt O43318); details: Compound concentration 1000.0 nM
Chain of Mitogen-activated protein kinase kinase kinase 7 (Homo sapiens) (O43318 whole entry): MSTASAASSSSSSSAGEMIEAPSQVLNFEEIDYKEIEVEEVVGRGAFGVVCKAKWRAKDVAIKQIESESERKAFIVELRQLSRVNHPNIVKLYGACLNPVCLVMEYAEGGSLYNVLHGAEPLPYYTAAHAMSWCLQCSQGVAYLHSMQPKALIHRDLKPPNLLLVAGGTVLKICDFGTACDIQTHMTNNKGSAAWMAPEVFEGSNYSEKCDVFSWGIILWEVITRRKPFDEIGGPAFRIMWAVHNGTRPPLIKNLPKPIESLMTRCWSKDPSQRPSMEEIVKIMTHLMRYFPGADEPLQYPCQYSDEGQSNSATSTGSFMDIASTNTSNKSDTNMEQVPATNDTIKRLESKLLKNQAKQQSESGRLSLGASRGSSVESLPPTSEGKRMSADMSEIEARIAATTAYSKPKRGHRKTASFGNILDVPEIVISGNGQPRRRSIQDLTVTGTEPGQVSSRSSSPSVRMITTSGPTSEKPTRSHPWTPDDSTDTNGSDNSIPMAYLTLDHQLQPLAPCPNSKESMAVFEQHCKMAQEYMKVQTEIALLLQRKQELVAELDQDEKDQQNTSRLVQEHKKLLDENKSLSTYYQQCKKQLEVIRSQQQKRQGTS

[21] = target: Serine/threonine-protein kinase Nek11 (Homo sapiens) (UniProt Q8NG66); details: Compound concentration 1000.0 nM
[22] = target: Cyclin-dependent kinase-like 1 (Homo sapiens) (UniProt Q00532); details: Compound concentration 1000.0 nM
[23] = target: Protein kinase C eta type (Homo sapiens) (UniProt P24723); details: Compound concentration 1000.0 nM
Chain of Protein kinase C eta type (Homo sapiens) (P24723 whole entry): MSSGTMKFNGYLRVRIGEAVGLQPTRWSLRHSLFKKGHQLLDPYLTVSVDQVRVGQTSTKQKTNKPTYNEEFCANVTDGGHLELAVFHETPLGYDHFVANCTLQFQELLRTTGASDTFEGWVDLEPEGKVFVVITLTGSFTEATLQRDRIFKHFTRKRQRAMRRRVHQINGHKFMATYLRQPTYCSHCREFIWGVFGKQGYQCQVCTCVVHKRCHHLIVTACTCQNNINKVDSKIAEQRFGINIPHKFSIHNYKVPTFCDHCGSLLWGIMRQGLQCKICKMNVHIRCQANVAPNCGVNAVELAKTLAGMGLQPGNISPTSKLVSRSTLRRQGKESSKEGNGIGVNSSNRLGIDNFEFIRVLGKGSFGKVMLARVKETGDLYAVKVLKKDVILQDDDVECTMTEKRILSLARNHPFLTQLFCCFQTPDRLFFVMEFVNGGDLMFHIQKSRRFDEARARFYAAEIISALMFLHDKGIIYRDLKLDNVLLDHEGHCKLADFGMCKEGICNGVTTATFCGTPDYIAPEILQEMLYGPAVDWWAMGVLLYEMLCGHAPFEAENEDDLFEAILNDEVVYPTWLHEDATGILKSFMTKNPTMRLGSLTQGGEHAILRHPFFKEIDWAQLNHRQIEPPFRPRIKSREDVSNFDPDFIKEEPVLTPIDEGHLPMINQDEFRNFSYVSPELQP

[24] = target: Glycogen synthase kinase-3 alpha (Homo sapiens) (UniProt P49840); details: Compound concentration 1000.0 nM
[25] = target: Serine/threonine-protein kinase MRCK gamma (Homo sapiens) (UniProt Q6DT37); details: Compound concentration 1000.0 nM
[26] = target: Casein kinase I isoform gamma-2 (Homo sapiens) (UniProt P78368); details: Compound concentration 1000.0 nM
[27] = target: Serine/threonine-protein kinase 38-like (Homo sapiens) (UniProt Q9Y2H1); details: Compound concentration 1000.0 nM
Chain of Serine/threonine-protein kinase 38-like (Homo sapiens) (Q9Y2H1 2-464 limits assumed): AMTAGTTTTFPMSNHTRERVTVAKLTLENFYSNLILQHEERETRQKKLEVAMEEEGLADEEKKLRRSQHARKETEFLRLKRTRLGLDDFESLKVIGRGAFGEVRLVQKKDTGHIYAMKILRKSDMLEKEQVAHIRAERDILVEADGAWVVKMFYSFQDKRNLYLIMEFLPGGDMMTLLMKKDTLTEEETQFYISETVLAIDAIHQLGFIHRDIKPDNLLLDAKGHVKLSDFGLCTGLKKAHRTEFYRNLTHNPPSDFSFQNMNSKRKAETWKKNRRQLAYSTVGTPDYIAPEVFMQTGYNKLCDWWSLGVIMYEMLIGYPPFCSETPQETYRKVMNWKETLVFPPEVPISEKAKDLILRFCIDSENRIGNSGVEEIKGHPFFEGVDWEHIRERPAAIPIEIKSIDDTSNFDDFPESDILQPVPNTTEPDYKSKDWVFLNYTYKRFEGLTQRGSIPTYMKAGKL

[28] = target: Alpha-1B adrenergic receptor (Homo sapiens) (UniProt P35368); details: Compound concentration 10.0 uM
Chain of Alpha-1B adrenergic receptor (Homo sapiens) (P35368 whole entry): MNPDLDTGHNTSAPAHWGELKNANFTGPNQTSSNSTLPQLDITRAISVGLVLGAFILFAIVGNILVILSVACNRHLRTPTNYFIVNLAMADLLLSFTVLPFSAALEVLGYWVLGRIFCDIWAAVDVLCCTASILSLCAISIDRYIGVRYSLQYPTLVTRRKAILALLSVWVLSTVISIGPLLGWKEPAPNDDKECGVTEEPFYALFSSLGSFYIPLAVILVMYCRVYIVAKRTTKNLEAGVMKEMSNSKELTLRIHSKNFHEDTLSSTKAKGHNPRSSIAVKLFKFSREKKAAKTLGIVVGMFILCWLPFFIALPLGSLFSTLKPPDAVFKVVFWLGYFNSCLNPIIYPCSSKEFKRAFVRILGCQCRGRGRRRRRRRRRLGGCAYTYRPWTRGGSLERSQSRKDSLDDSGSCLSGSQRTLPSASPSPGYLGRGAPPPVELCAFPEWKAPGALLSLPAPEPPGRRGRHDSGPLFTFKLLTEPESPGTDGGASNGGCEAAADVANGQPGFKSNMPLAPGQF

[29] = test system: Tyrosine-protein kinase ABL1 (Homo sapiens), P00519 [H396P]; details: Compound concentration 1000.0 nM
[30] = target: Serine/threonine-protein kinase ULK3 (Homo sapiens) (UniProt Q6PHR2); details: Compound concentration 1000.0 nM
[31] = target: Non-receptor tyrosine-protein kinase TYK2 (Homo sapiens) (UniProt P29597); details: Compound concentration 1000.0 nM
[32] = target: Protein kinase C theta type (Homo sapiens) (UniProt Q04759); details: Compound concentration 1000.0 nM
[33] = target: Mitogen-activated protein kinase 4 (Homo sapiens) (UniProt P31152); details: Compound concentration 1000.0 nM
[34] = target: Serine/threonine-protein kinase ULK1 (Homo sapiens) (UniProt O75385); details: Compound concentration 1000.0 nM
[35] = test system: Epidermal growth factor receptor (Homo sapiens), P00533 [UNDEFINED MUTATION]; details: Compound concentration 1000.0 nM
[36] = target: cGMP-dependent protein kinase 2 (Homo sapiens) (UniProt Q13237); details: Compound concentration 1000.0 nM
[37] = target: Serine/threonine-protein kinase NLK (Homo sapiens) (UniProt Q9UBE8); details: Compound concentration 1000.0 nM
[38] = target: Serine/threonine-protein kinase PLK2 (Homo sapiens) (UniProt Q9NYY3); details: Compound concentration 1000.0 nM
[39] = target: Citron Rho-interacting kinase (Homo sapiens) (UniProt O14578); details: Compound concentration 1000.0 nM
[40] = target: Calcium/calmodulin-dependent protein kinase type IV (Homo sapiens) (UniProt Q16566); details: Compound concentration 1000.0 nM
[41] = target: cAMP-dependent protein kinase catalytic subunit PRKX (Homo sapiens) (UniProt P51817); details: Compound concentration 1000.0 nM
Chain of cAMP-dependent protein kinase catalytic subunit PRKX (Homo sapiens) (P51817 whole entry): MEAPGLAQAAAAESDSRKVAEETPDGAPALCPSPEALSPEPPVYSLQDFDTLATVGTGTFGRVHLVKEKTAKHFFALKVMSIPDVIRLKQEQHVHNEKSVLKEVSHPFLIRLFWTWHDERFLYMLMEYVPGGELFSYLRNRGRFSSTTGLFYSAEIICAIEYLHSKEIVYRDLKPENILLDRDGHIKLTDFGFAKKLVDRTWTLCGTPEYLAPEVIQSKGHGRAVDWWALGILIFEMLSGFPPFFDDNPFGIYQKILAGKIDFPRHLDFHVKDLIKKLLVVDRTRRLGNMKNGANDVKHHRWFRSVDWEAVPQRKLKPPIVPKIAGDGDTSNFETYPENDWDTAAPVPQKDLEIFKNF

[42] = target: STE20-like serine/threonine-protein kinase (Homo sapiens) (UniProt Q9H2G2); details: Compound concentration 1000.0 nM
[43] = target: Ephrin type-B receptor 3 (Homo sapiens) (UniProt P54753); details: Compound concentration 1000.0 nM
[44] = target: Fibroblast growth factor receptor 4 (Homo sapiens) (UniProt P22455); details: Compound concentration 1000.0 nM
[45] = target: Cyclin-dependent kinase-like 2 (Homo sapiens) (UniProt Q92772); details: Compound concentration 1000.0 nM
[46] = target: MAP/microtubule affinity-regulating kinase 3 (Homo sapiens) (UniProt P27448); details: Compound concentration 1000.0 nM
Chain of MAP/microtubule affinity-regulating kinase 3 (Homo sapiens) (P27448 whole entry, looked up): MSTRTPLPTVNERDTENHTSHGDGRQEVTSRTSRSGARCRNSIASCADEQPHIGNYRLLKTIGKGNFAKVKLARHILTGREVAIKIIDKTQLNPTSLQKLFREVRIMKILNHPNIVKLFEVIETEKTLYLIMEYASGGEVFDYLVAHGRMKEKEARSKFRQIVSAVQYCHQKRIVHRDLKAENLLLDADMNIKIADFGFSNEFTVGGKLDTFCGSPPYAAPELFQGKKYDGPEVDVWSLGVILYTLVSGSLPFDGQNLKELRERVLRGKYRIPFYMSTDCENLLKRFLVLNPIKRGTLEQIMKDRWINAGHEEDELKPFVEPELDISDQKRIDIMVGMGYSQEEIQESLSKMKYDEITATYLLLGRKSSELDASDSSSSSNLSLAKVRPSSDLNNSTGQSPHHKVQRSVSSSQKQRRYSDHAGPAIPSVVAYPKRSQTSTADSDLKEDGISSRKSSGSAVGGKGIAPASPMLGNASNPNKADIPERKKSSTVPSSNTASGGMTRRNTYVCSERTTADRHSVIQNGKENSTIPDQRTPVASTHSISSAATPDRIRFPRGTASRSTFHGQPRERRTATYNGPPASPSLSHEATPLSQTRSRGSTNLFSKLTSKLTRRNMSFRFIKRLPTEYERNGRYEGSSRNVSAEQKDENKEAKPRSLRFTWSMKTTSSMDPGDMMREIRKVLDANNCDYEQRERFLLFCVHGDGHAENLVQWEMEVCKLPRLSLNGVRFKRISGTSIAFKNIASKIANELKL

Cn1cncc1[C@](O)(COc1ccc(C#N)cc1-c1ccc(OC(F)(F)F)cc1)c1ccc(C#N)cc1 [ABT-100]
residual activity [1]: 80%
residual activity [2]: 91%
residual activity [3]: 100%
residual activity [4]: 77%
residual activity [5]: 72%
residual activity [6]: 100%
residual activity [7]: 94%
residual activity [8]: 100%
residual activity [9]: 84%
residual activity [10]: 91%
inhibition [11]: -9.46%
residual activity [12]: 75%
residual activity [13]: 46%
residual activity [14]: 100%
residual activity [15]: 87%
inhibition [16]: -6.36%
inhibition [17]: 6.74%
residual activity [18]: 100%
residual activity [19]: 96%
residual activity [20]: 100%
residual activity [21]: 100%
residual activity [22]: 82%
residual activity [23]: 94%
residual activity [24]: 62%
residual activity [25]: 85%
residual activity [26]: 78%
residual activity [27]: 65%
inhibition [28]: 16.6%
residual activity [29]: 100%
residual activity [30]: 88%
residual activity [31]: 100%
residual activity [32]: 79%
residual activity [33]: 100%
residual activity [34]: 100%
residual activity [35]: 78%
residual activity [36]: 100%
residual activity [37]: 89%
residual activity [38]: 94%
residual activity [39]: 77%
residual activity [40]: 100%
residual activity [41]: 87%
residual activity [42]: 90%
residual activity [43]: 100%
residual activity [44]: 100%
residual activity [45]: 88%
residual activity [46]: 100%

Cn1cncc1[C@@](O)(COc1ccc(C#N)cc1-c1ccc(OC(F)(F)F)cc1)c1ccc(C#N)cc1 [A-108]
residual activity [1]: 99%
residual activity [2]: 87%
residual activity [3]: 90%
residual activity [4]: 90%
residual activity [5]: 100%
residual activity [6]: 94%
residual activity [7]: 80%
residual activity [8]: 95%
residual activity [9]: 64%
residual activity [10]: 91%
inhibition [11]: 18.1%
residual activity [12]: 80%
residual activity [13]: 99%
residual activity [14]: 96%
residual activity [15]: 97%
inhibition [16]: -3.79%
inhibition [17]: 14.2%
residual activity [18]: 96%
residual activity [19]: 94%
residual activity [20]: 67%
residual activity [21]: 100%
residual activity [22]: 89%
residual activity [23]: 95%
residual activity [24]: 100%
residual activity [25]: 96%
residual activity [26]: 64%
residual activity [27]: 87%
inhibition [28]: 5.97%
residual activity [29]: 92%
residual activity [30]: 78%
residual activity [31]: 100%
residual activity [32]: 100%
residual activity [33]: 90%
residual activity [34]: 95%
residual activity [35]: 64%
residual activity [36]: 87%
residual activity [37]: 100%
residual activity [38]: 86%
residual activity [39]: 97%
residual activity [40]: 100%
residual activity [41]: 94%
residual activity [42]: 100%
residual activity [43]: 6%
residual activity [44]: 100%
residual activity [45]: 93%
residual activity [46]: 93%
